Reference: patent US20080102042A1, “Oral Composition” (KYOWA HAKKO KOGYO CO., LTD., priority 2004, published 2008)

How the values were obtained:
[1] = tested on: advanced alveolar pyorrhea; test: Test Example 1: injection into the periodontal pocket of a patient with advanced alveolar pyorrhea, with gingival massage; assay type: in vivo, human; conditions: buffered saline (pH 7.0) containing 2.5% by weight, 0.8 ml into periodontal pocket, gingiva massaged, twice a day for two weeks; one patient
Protocol: Buffered saline (pH 7.0) containing 2.5% by weight of N-acetylhydroxyproline (0.8 ml) was injected into the periodontal pocket of a patient with advanced alveolar pyorrhea and the gingiva was lightly massaged.

alveolar pyorrhea = test: Test Example 2: injection into the periodontal pocket of a patient with alveolar pyorrhea (big periodontal pocket, loose tooth), then continued toothbrushing; assay type: in vivo, human
Protocol: This treatment was carried out after toothbrushing three times a day for two weeks. […] Thereafter, toothbrusing was continuously carried out using a very fine toothbrush with buffered saline (pH 7.0) containing 2.5% by weight of N-acetylhydroxyproline on it with massage of the gingiva and the inside of the periodontal pocket. This toothbrusing was carried out for more than three minutes three times a day.

[2] = buffered saline (pH 7.0) containing 2.5% by weight, 0.8 ml into periodontal pocket, after toothbrushing three times a day for two weeks, one patient

CC(=O)N1C[C@H](O)C[C@H]1C(=O)O [N-acetylhydroxyproline, N-acetyl-trans-4-hydroxy-L-proline]
symptoms of alveolar pyorrhea [1]: remarkably improved
looseness of the tooth (alveolar pyorrhea; [2]): remarkably improved
pain of alveolar pyorrhea (alveolar pyorrhea; [2]): completely disappeared
healthy state without pain or looseness of tooth (prevention of recurrence) (alveolar pyorrhea; thereafter continued toothbrushing with buffered saline (pH 7.0) containing 2.5% by weight, more than three minutes three times a day): could be maintained
